Data on 39 compounds can be found in PubChem BioAssay (NCI).

One experiment has as its system OVCAR-8 ovarian. Description: inhibition of tumour cell growth, NCI panel, 48 h.
For a further experiment, the system named is SF-268 CNS. Nature of the experiment: inhibition of tumour cell growth, NCI panel, 48 h.

Structures are written as SMILES.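 These data come from cells grown in 96-well plates and exposed to compound for 48 hours at five concentrations. Definition used: TGI = concentration required for complete inhibition of growth.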

On to `OC(CCN1CCCCC1)(c1ccccc1)c1ccccc1`, for which the TGI in the experiment with OVCAR-8 ovarian and with SF-268 CNS was above 100 µM throughout.

For the compound `CC1=NN(C(=O)CC(=O)Nc2ccc(C)cc2)C(=O)C1N=Nc1ccc(C(=O)O)cc1` (configuration not stated), the TGI in the experiment with OVCAR-8 ovarian and in the experiment on SF-268 CNS was above 100 µM in each case. Regarding `COc1cc(OCc2nc3ccccc3n3cccc23)cc(OC)c1OC`, the TGI with OVCAR-8 ovarian and with SF-268 CNS was above 100 µM in each case. As to `CCOC(=O)C(C(=O)OCC)=C1NC2(c3ccccc3Nc3ccc(C)cc32)C(C#N)S1` (configuration not stated), the TGI in the experiment with OVCAR-8 ovarian came to 35 µM; in the experiment with SF-268 CNS, 36.2 µM. For `O=C(N/N=C/c1ccc2c(c1)OCO2)Nc1ccccc1Cl`, in that order: above 43.1 µM and above 82.5 µM.

As to `CC(C)=CCC[C@@H](C)C1=C(O)C(O)C(C)=C2N=C(c3ccccc3)C(=O)OC21` (some centres not stated), the TGI in the experiment on OVCAR-8 ovarian is above 11 µM; in the experiment with SF-268 CNS, above 25 µM. Taken in the same sequence, the figures for `COc1cc(S(=O)(=O)Nc2nc(-c3ccc(N4C(=O)C(CC(=O)O)SC4c4ccccc4O)cc3)cs2)ccc1Cl` (configuration not stated) were above 100 µM and above 100 µM. For `CC(C)(C)[Si](C)(C)O[C@@H](C(=O)OC1C=CCCC1)[C@@H](NC(=O)c1ccccc1)c1ccccc1` (some centres not stated), in that order: above 100 µM and above 100 µM.

For the compound `CC(=O)O[C@@H]1CC[C@@]2(C)C(CC[C@H]3[C@@H]4CC[C@H]([C@H](C)CCc5nc6ccc(C)cc6[nH]5)[C@@]4(C)CC[C@@H]32)C1` (some centres not stated), the TGI with OVCAR-8 ovarian and in the experiment with SF-268 CNS was above 100 µM throughout. On to `COc1nc(C)nc2sc3c(c12)CCCC3`, for which the TGI with OVCAR-8 ovarian and in the experiment with SF-268 CNS was above 100 µM throughout. On to `ClC1(Cl)C(c2ccccc2)C1c1ccccc1` (configuration not stated), for which the TGI is 77.4 µM in the experiment on OVCAR-8 ovarian and above 100 µM in the experiment with SF-268 CNS.

For the compound `Cc1cc([C@H](C#N)c2nc3ccccc3[nH]2)nc(Cl)n1`, the TGI in the experiment with OVCAR-8 ovarian and in the experiment with SF-268 CNS was above 100 µM each time. For `CN(C)C=Nc1cccc2nsnc12`, the TGI in the experiment with OVCAR-8 ovarian and in the experiment on SF-268 CNS was above 100 µM throughout.

Consider `Cc1cc(C)nc(NS(=O)(=O)c2ccc(NNc3c4ccccc4nc4c(C(=O)Nc5ccc(S(=O)(=O)Nc6ncccn6)cc5)cccc34)cc2)n1`, for which the TGI in the experiment on OVCAR-8 ovarian and in the experiment with SF-268 CNS was above 100 µM in each case.

Regarding `Cc1csc2nc3c(cnn3C)c(=S)n12`, the TGI with OVCAR-8 ovarian and in the experiment on SF-268 CNS was above 100 µM in each case.

For the compound `Cc1ccc2c(c1)C(=O)/C(=N/Nc1ccc(Cl)cc1)CCO2`, the TGI in the experiment with OVCAR-8 ovarian and in the experiment on SF-268 CNS was above 100 µM each time. Regarding `CN1CCC2(CC1)SC[C@H]1C(=O)N(c3ccc(Cl)cc3)C(=O)N12`, the TGI in the experiment with OVCAR-8 ovarian and with SF-268 CNS was above 100 µM each time. Consider `CCC(C)C(C(=O)N/N=C1/SCC(=O)N1c1ccccc1)C(=O)N/N=C1/SCC(=O)N1c1ccccc1` (configuration not stated), for which the TGI in the experiment on OVCAR-8 ovarian and with SF-268 CNS was above 100 µM throughout.

Turning to `O=C1C(=O)c2c(oc(=O)c3ccccc23)-c2ccccc21`, the TGI in the experiment on OVCAR-8 ovarian and with SF-268 CNS was above 25 µM each time. As to `CC1(C)CN=C(c2ccc3c(c2)Cc2cc(C4=NCC(C)(C)N4)ccc2-3)N1`, the TGI in the experiment with OVCAR-8 ovarian and in the experiment on SF-268 CNS was above 100 µM each time. Take `CCOC(=O)C(SCCO)C(C(=O)OCC)n1cnc2c(N)ncnc21` (configuration not stated): the TGI amounted to 31.2 µM in the experiment on OVCAR-8 ovarian and 35.9 µM with SF-268 CNS. In the case of `O=C1CC(CC(O)[C@@H]2CCCC[C@@H]2O)CC(=O)N1c1ccccc1` (some centres not stated), the TGI in the experiment on OVCAR-8 ovarian and in the experiment with SF-268 CNS was above 100 µM each time. `CCCCCCCCCCCCCCCCCCNc1ccn(C2OC(COP(=O)(O)OC3CC(n4cc(F)c(=O)[nH]c4=O)OC3COP(=O)(O)OCC3OC(n4ccc(N)nc4=O)C(O)C3O)C(O)C2O)c(=O)n1` (configuration not stated) displayed a TGI in the experiment with OVCAR-8 ovarian above 51.8 µM. Regarding `COCC(N=CN1CCCc2ccccc2[C@@H]1CCCCl)C(C)(C)C` (some centres not stated), the results for the TGI in the experiment on OVCAR-8 ovarian and with SF-268 CNS were 40.7 µM and above 100 µM, respectively. Taken in the same sequence, the figures for `COc1ccc(OC)c2sc(N3C(=O)/C(=C/c4ccc(Cl)cc4)N=C3c3ccccc3)nc12` were above 100 µM and above 100 µM. `O=c1[nH]c(C23CC4CC(CC(C4)C2)C3)cc2c1c(=O)oc1ccccc12`: the TGI turned out to be 15 µM in the experiment with OVCAR-8 ovarian and 9.52 µM in the experiment with SF-268 CNS. For `COc1ccc2nc3c([N+](=O)[O-])ccc4c3c(c2c1)N=CN4CCCN(C)C`, in that order: 25.7 µM and 17.8 µM.

On to `COc1cc(/C=C(\C#N)c2nc3ccccc3o2)ccc1O`, for which the results for the TGI with OVCAR-8 ovarian and in the experiment on SF-268 CNS were 50 µM and 50.7 µM, respectively.

Consider `CN(C)c1ccc(/C=N\NC(=O)c2ccccc2Nc2ccccc2C(=O)N/N=C/c2ccc(N(C)C)cc2)cc1`, for which the TGI with OVCAR-8 ovarian and in the experiment on SF-268 CNS was above 100 µM throughout.

With `CCOC(=O)C1=CN/C(=C(/C)C(=O)OC)SC1C(=O)OCC` (configuration not stated), the TGI in the experiment with OVCAR-8 ovarian and in the experiment on SF-268 CNS was above 100 µM each time. For `O=C(O)c1ccc(P(=O)(O)c2ccc(C(=O)O)cc2Br)c(Br)c1`, the TGI with OVCAR-8 ovarian and in the experiment with SF-268 CNS was above 100 µM throughout. As to `C=C1C(=O)OC2/C=C(\CO)C3OC3C3OC3(C)CC(OC(=O)/C(=C/C)CO)C12` (configuration not stated), the TGI in the experiment on OVCAR-8 ovarian and in the experiment on SF-268 CNS was above 100 µM in each case.

In the case of `CCOC(=O)CCC(NC(=O)c1ccc(CNc2nc3ccccc3nc2C(=O)OCC)cc1)C(=O)OCC` (configuration not stated), the TGI with OVCAR-8 ovarian and in the experiment with SF-268 CNS was above 100 µM throughout. On to `COC(=O)Nc1nc2ccc(S(=O)(=O)NC(CC(C)C)C(=O)OC)cc2[nH]1` (configuration not stated), for which the TGI in the experiment on OVCAR-8 ovarian and with SF-268 CNS was above 100 µM in each case. As to `COC(=O)c1cc2c(o1)Sc1ccccc1NC2=O`, the TGI in the experiment with OVCAR-8 ovarian and in the experiment with SF-268 CNS was above 100 µM each time. With `CC12CCC3[C@@H](CC3(C)C)C(O)(CCC1=O)C2` (some centres not stated), the TGI in the experiment on OVCAR-8 ovarian and with SF-268 CNS was above 100 µM each time. `CCOC(=O)NNC(=O)C1CSC(c2ccccc2)N1C(C)=O` (configuration not stated): the TGI in the experiment with OVCAR-8 ovarian and in the experiment on SF-268 CNS was above 100 µM throughout. Regarding `COc1ccc2cc(CNCCCCCCCCCCCCNCc3ccc4cc(OC)ccc4c3)ccc2c1`, the results for the TGI with OVCAR-8 ovarian and in the experiment with SF-268 CNS were 32.4 µM and 27.2 µM, respectively.

With `COC(=O)c1c(O)ccc2c1c1c(n2Cc2ccccc2)C(=O)c2ccccc2C1=O`, the TGI came out at 26.2 µM with OVCAR-8 ovarian and 33 µM in the experiment on SF-268 CNS.
